For 23 molecules, CC50, IC50 and selectivity ratio results are on record in ChEMBL document CHEMBL1955749, “Synthesis and anti-influenza activity of aminoalkyl rupestonates” (Bioorg Med Chem Lett, 2012).

Series [1] in a line: Cytotoxicity against MDCK cells. The conditions noted are these: dog, read-out: TC50 (the source's name). Type of series: cell-based, Canis lupus familiaris.
The test system of a further series is Influenza B virus. As to the kind of experiment: Antiinfluenza activity against influenza B virus infected in MDCK cells assessed as inhibition of virus-induced cytopathic effect after 36 hrs. Type of series: functional, organism-based. In general terms: Cytopathic effects are the visible damage that an infection or toxin causes in cultured cells.
The test system of series [2] is Influenza A virus. The experiment in a line: Antiinfluenza activity against influenza A virus H3N2 infected in MDCK cells assessed as inhibition of virus-induced cytopathic effect after 36 hrs. The class given is functional, organism-based.
Series [3] has as its system Influenza A virus. As to the kind of experiment: Antiinfluenza activity against influenza A virus H1N1 infected in MDCK cells assessed as inhibition of virus-induced cytopathic effect after 36 hrs. The class given is functional, organism-based.
Series [4] in a line: Selectivity index, ratio of TC50 for MDCK cells to IC50 for influenza A virus H1N1. Type of series: toxicity, cell-based. The conditions noted are these: dog, read-out: Selectivity Index.
The nature of series [5]: Selectivity index, ratio of TC50 for MDCK cells to IC50 for influenza A virus H3N2. Type of series: toxicity, cell-based. The following applies: dog, read-out: Selectivity Index.
A short description of series [6]: Selectivity index, ratio of TC50 for MDCK cells to IC50 for influenza B virus. Type of series: toxicity, cell-based. The following applies: dog, read-out: Selectivity Index.

For the molecule `C=C(C(=O)OCCCCCCN1CCN(C)CC1)[C@@H]1CC[C@H](C)[C@@H]2CC(=O)C(C)=C2C1`, the CC50 in series [1] came out at 86 µM. The IC50 in the series with Influenza B virus, in the series on Influenza A virus [2] and in the series on Influenza A virus [3] was > 9.6 µM throughout.

In the case of `C=C(C(=O)OCCCCCCCCN1CCN(c2ccccc2)CC1)[C@@H]1CC[C@H](C)[C@@H]2CC(=O)C(C)=C2C1`, the CC50 in series [1] was 333 µM. Also, the IC50 (commonly the point on the concentration scale where inhibition reaches its midpoint) was > 160 µM in the series on Influenza B virus, > 160 µM in the series with Influenza A virus [2] and 92.6 µM in the series with Influenza A virus [3]. In addition, the selectivity ratio in series [4] turned out to be 3.6.

Turning to `C=C(C(=O)OCCCCBr)[C@@H]1CC[C@H](C)[C@@H]2CC(=O)C(C)=C2C1`, in series [1], the CC50 was found to be 420 µM. For the same molecule, the figures for the IC50 with Influenza B virus, in the series with Influenza A virus [2] and in the series on Influenza A virus [3] were 67.2 µM, 75.2 µM and 75.2 µM, respectively. Besides, the figures for the selectivity ratio in series [4], in series [5] and in series [6] were 5.6, 5.6 and 6.2, respectively.

On to `C=C(C(=O)OCCBr)[C@@H]1CC[C@H](C)[C@@H]2CC(=O)C(C)=C2C1`, for which the CC50 in series [1] was found to be 1360 µM. The IC50 in the series with Influenza B virus, in the series with Influenza A virus [2] and in the series on Influenza A virus [3] was > 314 µM in each case.

Consider `C=C(C(=O)OCCCCCBr)[C@@H]1CC[C@H](C)[C@@H]2CC(=O)C(C)=C2C1`, for which the CC50 in series [1] was determined as 54 µM. Further, the results for the IC50 in the series with Influenza B virus, in the series on Influenza A virus [2] and with Influenza A virus [3] were > 31.2 µM, 19.3 µM and 19.3 µM, respectively. For the same molecule, the selectivity ratio in series [4] and in series [5] was 2.8 in each case.

`C=C(C(=O)OCCCCCCCCN1CCN(C)CC1)[C@@H]1CC[C@H](C)[C@@H]2CC(=O)C(C)=C2C1`: the CC50 in series [1] was found to be 188 µM. The IC50 in the series on Influenza B virus, in the series with Influenza A virus [2] and in the series with Influenza A virus [3] was > 26.9 µM each time.

Turning to `C=C(C(=O)OCCCCCCN1CCN(c2ccccc2)CC1)[C@@H]1CC[C@H](C)[C@@H]2CC(=O)C(C)=C2C1`, in series [1], the CC50 worked out at 394 µM. Further, the IC50 with Influenza B virus, in the series on Influenza A virus [2] and with Influenza A virus [3] was > 56.5 µM each time.

As for `C=C(C(=O)OCCCN1CCN(C)CC1)[C@@H]1CC[C@H](C)[C@@H]2CC(=O)C(C)=C2C1`, in series [1], the CC50 is 667 µM. Also, the IC50 in the series with Influenza B virus, in the series with Influenza A virus [2] and with Influenza A virus [3] was > 95.5 µM each time.

With `C=C(C(=O)OCCCCCCCCBr)[C@@H]1CC[C@H](C)[C@@H]2CC(=O)C(C)=C2C1`, the CC50 in series [1] turned out to be 146 µM. The figures for the IC50 with Influenza B virus, with Influenza A virus [2] and with Influenza A virus [3] were > 28.2 µM, 14.1 µM and 12.4 µM, respectively. For the same molecule, the selectivity ratio in series [4] is 11.8; in series [5] it was 10.4.

Regarding `C=C(C(=O)OCCCn1cncn1)[C@@H]1CC[C@H](C)[C@@H]2CC(=O)C(C)=C2C1`, in series [1], the CC50 turned out to be 311 µM. In addition, the figures for the IC50 in the series on Influenza B virus, in the series with Influenza A virus [2] and with Influenza A virus [3] were > 34.6 µM, 34.6 µM and 24 µM, respectively. The selectivity ratio in series [4] came out at 13; in series [5], 9.

On to `C=C(C(=O)OCCCCCn1cncn1)[C@@H]1CC[C@H](C)[C@@H]2CC(=O)C(C)=C2C1`, for which the CC50 in series [1] is 672 µM. The IC50 in the series with Influenza B virus was determined as 17.3 µM; with Influenza A virus [2], 17.3 µM; in the series on Influenza A virus [3], 7.4 µM. Besides, the selectivity ratio in series [4] is 90.8; in series [5] it was 38.9; in series [6], 38.9.

For the molecule `C=C(C(=O)OCCCCN1CCN(C)CC1)[C@@H]1CC[C@H](C)[C@@H]2CC(=O)C(C)=C2C1`, in series [1], the CC50 came to 644 µM. The IC50 is > 92.1 µM with Influenza B virus, 71.5 µM in the series on Influenza A virus [2] and 10.3 µM with Influenza A virus [3]. Besides, the selectivity ratio in series [4] came out at 62.8; in series [5], 9.

Regarding `C=C(C(=O)O)[C@@H]1CC[C@H](C)[C@@H]2CC(=O)C(C)=C2C1` [PECHUELOIC ACID], the CC50 in series [1] came to 4650 µM. Besides, the 50% inhibitory concentration (IC50) with Influenza B virus is > 4030 µM; in the series with Influenza A virus [2], 25.8 µM; with Influenza A virus [3] it was > 1340 µM. Besides, the selectivity ratio in series [5] came out at 181.

Take `C=C(C(=O)OCCN1CCN(C)CC1)[C@@H]1CC[C@H](C)[C@@H]2CC(=O)C(C)=C2C1`: the CC50 in series [1] was 231 µM. The half-inhibitory concentration (IC50) is > 33 µM in the series on Influenza B virus, > 33 µM in the series with Influenza A virus [2] and 129 µM with Influenza A virus [3]. For the same molecule, in series [4], the selectivity ratio turned out to be 1.8.

As to `C=C(C(=O)OCCCCCN1CCN(c2ccccc2)CC1)[C@@H]1CC[C@H](C)[C@@H]2CC(=O)C(C)=C2C1`, the CC50 in series [1] is 112 µM. Also, the IC50 with Influenza B virus is > 25.8 µM; in the series on Influenza A virus [2], > 25.7 µM; with Influenza A virus [3] it was 20 µM. The selectivity ratio in series [4] came out at 5.6.

Consider `C=C(C(=O)OCCCCCCBr)[C@@H]1CC[C@H](C)[C@@H]2CC(=O)C(C)=C2C1`, for which the CC50 in series [1] is 469 µM. The IC50 amounted to 52.1 µM in the series with Influenza B virus, 52.1 µM with Influenza A virus [2] and 39.6 µM with Influenza A virus [3]. In addition, the selectivity ratio in series [4] came out at 11.8; in series [5], 9; in series [6], 9.

As for `C=C(C(=O)OCCCCCN1CCN(C)CC1)[C@@H]1CC[C@H](C)[C@@H]2CC(=O)C(C)=C2C1`, the CC50 in series [1] came to 207 µM. The results for the half-maximal inhibitory concentration (IC50) in the series with Influenza B virus, with Influenza A virus [2] and in the series on Influenza A virus [3] were 20.6 µM, 20.6 µM and 17.1 µM, respectively. Besides, the selectivity ratio in series [4] amounted to 12.1; in series [5] it was 10.1; in series [6], 10.1.

With `C=C(C(=O)OCCCN1CCN(c2ccccc2)CC1)[C@@H]1CC[C@H](C)[C@@H]2CC(=O)C(C)=C2C1`, the CC50 in series [1] was determined as 171 µM. Further, the results for the IC50 in the series with Influenza B virus, in the series on Influenza A virus [2] and in the series with Influenza A virus [3] were > 11.2 µM, 57.1 µM and 63.9 µM, respectively. The selectivity ratio in series [4] is 2.7; in series [5], 3.

On to `C=C(C(=O)OCCn1cncn1)[C@@H]1CC[C@H](C)[C@@H]2CC(=O)C(C)=C2C1`, for which the CC50 in series [1] was 224 µM. Besides, the IC50 in the series on Influenza B virus is > 8 µM; in the series on Influenza A virus [2], 74.9 µM; in the series on Influenza A virus [3] it was 83.8 µM. Besides, the selectivity ratio in series [4] was 2.68; in series [5] it was 3.

`C=C(C(=O)OCCCBr)[C@@H]1CC[C@H](C)[C@@H]2CC(=O)C(C)=C2C1`: in series [1], the CC50 came to 436 µM. Besides, the IC50 in the series with Influenza B virus, in the series with Influenza A virus [2] and in the series with Influenza A virus [3] was > 101 µM each time.

`C=C(C(=O)OCCCCCCn1cncn1)[C@@H]1CC[C@H](C)[C@@H]2CC(=O)C(C)=C2C1`: the CC50 in series [1] came out at 120 µM. Also, the IC50 in the series on Influenza B virus was > 31 µM; in the series on Influenza A virus [2], 14.9 µM; with Influenza A virus [3], 48.2 µM. Besides, the selectivity ratio in series [4] stood at 2.48; in series [5], 8.

As for `C=C(C(=O)OCCCCN1CCN(c2ccccc2)CC1)[C@@H]1CC[C@H](C)[C@@H]2CC(=O)C(C)=C2C1`, the CC50 in series [1] amounted to 415 µM. Also, the IC50 with Influenza B virus is > 79.8 µM; with Influenza A virus [2], > 79.8 µM; in the series on Influenza A virus [3] it was 79.8 µM. Further, the selectivity ratio in series [4] was found to be 5.2.

In the case of `CCOC(=O)C1=C[C@@H](OC(CC)CC)[C@H](NC(C)=O)[C@@H](N)C1` [OSELTAMIVIR PHOSPHATE], the CC50 in series [1] came to 1260 µM. Also, the IC50 was > 500 µM with Influenza B virus, 1.1 µM in the series with Influenza A virus [2] and 15.5 µM with Influenza A virus [3]. Also, the selectivity ratio in series [4] amounted to 81.3; in series [5], 1140.
